The record followed here is patent publication US9611230B2, “1,3,4-oxadiazole benzoic acid compounds and their use for nonsense suppression and the treatment of disease” (PTC Therapeutics, Inc., priority 2004, dated 2017).

The subject of data set [1] is full-length luciferase protein produced by suppression of the premature termination codon. As to the kind of experiment: Western blot of full-length luciferase after immunoprecipitation (epitope-tagged nonsense constructs). In kind it is cell-based, Human. Conditions: printed in the UAAA column of Table 3. From the text: The nonsense suppression activity in an assay as described above is shown in the Table 3 below, for a construct with a UAG nonsense mutation at position 190, followed by an adenine nucleotide in-frame, (UAGA); and a construct with a UAA nonsense mutation at position 190, followed by an adenine nucleotide in-frame, (UAAA).
Another assay of the present invention can evaluate compounds that promote nonsense mutation suppression. The luciferase constructs described above in FIG. 1 are engineered to harbor two epitope tags in the N-terminus of the luciferase protein. Based on luciferase protein production, these constructs qualitatively assess the level of translation-readthrough. The presence of the full-length luciferase protein produced by suppression of the premature termination codon is measured by immunoprecipitation of the suppressed luciferase protein (using an antibody against a His tag) followed by western blotting using an antibody against the second epitope (the Xpress™ epitope; Invitrogen®; Carlsbad, Calif.). These constructs are depicted in FIG. 2.
Cells that harbor the constructs of FIG. 2 show increased full-length protein production when treated with a compound of the present invention. After treatment for 20 hours, cells containing the constructs of FIG. 2 are collected and an antibody recognizing the His epitope is used to immunoprecipitate the luciferase protein. Following immunoprecipitation, western blotting is performed using the antibody to the Xpress™ epitope (Invitrogen®; Carlsbad, Calif.) to detect the truncated luciferase (produced when no nonsense suppression occurs) and to detect the full-length protein (produced by suppression of the nonsense codon). Treatment of cells with a test compound produces full-length protein and not a readthrough protein (See e.g. FIG. 3). The readthrough protein is produced if suppression of the normal termination codon occurs. Compounds of the present invention suppress the premature, i.e. nonsense mutation, but not the normal termination codon in the luciferase mRNA.

Molecules are shown by their SMILES. Several values for one entry are separate records, joined by “and”; a condition that tells them apart may be missing. Equal values may be shown once. A value given as a limit tells only on which side of the number the result lay.

Compound `O=C(O)c1cccc(-c2cc(-c3ccc(Cl)cc3)on2)c1` [Compound No. 479, 3-[5-(4-chlorophenyl)isoxazol-3-yl]benzoic acid] had a melting point of 293 to 295 °C. Besides, in data set [1], the “western blot signal (POS WB)” value is recorded as “POSWB”. The corresponding values for `CCOc1ccc(-c2cnc(-c3cccc(C(=O)O)c3)o2)cc1` [Compound 595] are 223 to 224 °C and “POSWB”. Consider `O=C(O)c1ccc(-c2ncc(-c3ccc(F)cc3F)o2)cc1` [Compound No. 548, 4-[5-(2,4-difluorophenyl)oxazol-2-yl]benzoic acid], for which the melting point was 298 to 299 °C and 301 to 302 °C. For the same compound, in data set [1], the “western blot signal (POS WB)” value is given as “POSWB”. `O=C(O)c1cccc(-c2cc(-c3cccc(F)c3)on2)c1` [Compound 475] registered a melting point of 242 to 243 °C. The same measure, in the same setting: the same measure for `O=C(O)c1cccc(-c2nc(-c3ccc4c(c3)OCO4)no2)c1` [Compound 510]: 245 to 246 °C. As to `CC(C)c1ccc(-c2ncc(-c3cccc(C(=O)O)c3)s2)cc1` [Compound No. 321, 3-[2-(4-isopropylphenyl)thiazol-5-yl]benzoic acid], the melting point is 237 to 239 °C. Still for that read-out and setting: with `O=C(O)c1cccc(-c2nnc(-c3ccc(Cl)nc3Cl)o2)c1` [Compound 272] the figure was 205 to 208 °C; with `CC(C)c1ccc(NC(=O)c2nnc(-c3ccc(C(=O)O)cc3)o2)cc1` [Compound 284], 282 to 291 °C; with `Cc1cccc(-c2cnc(-c3ccc(C(=O)O)cc3)o2)c1` [Compound 632], 248 to 249 °C. On the same count and under the same terms, the same measure for `O=C(O)c1ccc(-c2ncc(-c3ccsc3)o2)cc1` [Compound 558]: 246 to 247 °C; for `O=C(O)c1ccc(-c2cc(-c3ccc(F)cc3F)on2)cc1` [Compound 531]: 317 to 319 °C. The same measure, in the same setting: with `Cc1ccc(-c2cc(-c3cccc(C(=O)O)c3)no2)cc1` [Compound 573] the figure was 257 to 259 °C. For `O=C(O)c1cccc(-c2nc(-c3cccc(F)c3)no2)c1` [Compound 507], the melting point lay within 221.5 to 223 °C.

Turning to `O=C(O)c1cccc(-c2nc(-c3ccc(OC(F)(F)F)cc3)no2)c1` [Compound 511], the melting point is 217 to 218 °C. Regarding `CC(C)c1cccc(-c2cnc(-c3cccc(C(=O)O)c3)o2)c1` [Compound 591], the melting point is 213 to 215 °C.

Compound `O=C(O)c1ccc(-c2ncc(-c3cccc(F)c3)o2)cc1` [Compound 553] gave a melting point of 264 to 265 °C. As to `O=C(O)c1cccc(-c2nnc(-c3ccc(N4CCOCC4)cc3)o2)c1` [Compound No. 82, 3-[5-(4-morpholin-4-yl-phenyl)-[1,3,4]oxadiazol-2-yl]benzoic acid], the melting point lay within 235 to 237 °C.

In the case of `O=C(O)c1ccc(-c2nnc(-c3ccnc(Cl)c3)o2)cc1` [Compound 225], the melting point was above 285 °C. On the same count and under the same terms, the same measure for `CC(C)c1ccc(-c2nc(-c3ccc(C(=O)O)cc3)no2)cc1` [Compound No. 275, 4-[5-(4-isopropylphenyl)-[1,2,4]oxadiazol-3-yl]benzoic acid]: 210 to 213 °C; for `O=C(O)c1cccc(-c2cc(-c3ccc(F)cc3F)no2)c1` [Compound 499]: above 278.5 °C. `O=C(O)c1cccc(-c2nnc(-c3ccc(C(=O)N4CCCCC4)cc3)o2)c1` [Compound 285]: the melting point was 253 to 256 °C. With `O=C(O)c1ccc(-c2ncc(-c3cccc(O)c3)o2)cc1` [Compound 648], the melting point was in the range of 291 to 292 °C.

The term melting point denotes the temperature of the solid-liquid transition.
